Test results reported in PubChem BioAssay (NCI).
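Each compound was tested at five concentrations against cells in 96-well plates for 48 hours. TGI marks complete inhibition of growth.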

How the values were obtained:
Test in all cases: inhibition of tumour cell growth, NCI panel, 48 h
RPMI-8226 leukemia = test system: RPMI-8226 leukemia
SK-MEL-28 melanoma = test system: SK-MEL-28 melanoma
CAKI-1 renal = test system: CAKI-1 renal
NCI-H23 lung = test system: NCI-H23 lung
MDA-MB-231 breast = test system: MDA-MB-231 breast
UACC-62 melanoma = test system: UACC-62 melanoma
NCI-H522 lung = test system: NCI-H522 lung
SN12C renal = test system: SN12C renal
UO-31 renal = test system: UO-31 renal
HS 578T breast = test system: HS 578T breast
MCF7 breast = test system: MCF7 breast
SNB-75 CNS = test system: SNB-75 CNS
PC-3 prostate = test system: PC-3 prostate
HT29 colon = test system: HT29 colon
HCC-2998 colon = test system: HCC-2998 colon
LOX IMVI melanoma = test system: LOX IMVI melanoma
T-47D breast = test system: T-47D breast
SNB-19 CNS = test system: SNB-19 CNS
HCT-116 colon = test system: HCT-116 colon
A549 NSCLC = test system: A549 NSCLC
ACHN renal = test system: ACHN renal
OVCAR-4 ovarian = test system: OVCAR-4 ovarian
EKVX NSCLC = test system: EKVX NSCLC
K-562 leukemia = test system: K-562 leukemia
OVCAR-8 ovarian = test system: OVCAR-8 ovarian
BT-549 breast = test system: BT-549 breast
TK-10 renal = test system: TK-10 renal
NCI-H226 lung = test system: NCI-H226 lung
KM12 colon = test system: KM12 colon
CCRF-CEM leukemia = test system: CCRF-CEM leukemia
M14 melanoma = test system: M14 melanoma
IGROV1 ovarian = test system: IGROV1 ovarian
SK-OV-3 ovarian = test system: SK-OV-3 ovarian
SW-620 colon = test system: SW-620 colon
MOLT-4 leukemia = test system: MOLT-4 leukemia
SF-539 CNS = test system: SF-539 CNS
HOP-62 NSCLC = test system: HOP-62 NSCLC
NCI/ADR-RES ovarian = test system: NCI/ADR-RES ovarian
OVCAR-3 ovarian = test system: OVCAR-3 ovarian
DU-145 prostate = test system: DU-145 prostate
OVCAR-5 ovarian = test system: OVCAR-5 ovarian
COLO 205 colon = test system: COLO 205 colon
SF-295 CNS = test system: SF-295 CNS
786-0 renal = test system: 786-0 renal
NCI-H460 lung = test system: NCI-H460 lung
RXF 393 renal = test system: RXF 393 renal
SF-268 CNS = test system: SF-268 CNS
U251 CNS = test system: U251 CNS
UACC-257 melanoma = test system: UACC-257 melanoma
SR leukemia = test system: SR leukemia
SK-MEL-5 melanoma = test system: SK-MEL-5 melanoma
SK-MEL-2 melanoma = test system: SK-MEL-2 melanoma
MALME-3M melanoma = test system: MALME-3M melanoma
MDA-MB-435 = test system: MDA-MB-435
HCT-15 colon = test system: HCT-15 colon

SMILES: COc1ccc(S(=O)Cc2cc(OC)c(OC)c(OC)c2)cc1 (stereo not given)
- TGI (RPMI-8226 leukemia): > 100 µM
- TGI (SK-MEL-28 melanoma): > 100 µM
- TGI (CAKI-1 renal): > 100 µM
- TGI (NCI-H23 lung): > 100 µM
- TGI (MDA-MB-231 breast): > 100 µM
- TGI (UACC-62 melanoma): > 100 µM
- TGI (NCI-H522 lung): > 100 µM
- TGI (SN12C renal): > 100 µM
- TGI (UO-31 renal): > 100 µM
- TGI (HS 578T breast): > 100 µM
- TGI (MCF7 breast): > 100 µM
- TGI (SNB-75 CNS): > 100 µM
- TGI (PC-3 prostate): > 100 µM
- TGI (HT29 colon): > 100 µM
- TGI (HCC-2998 colon): > 100 µM
- TGI (LOX IMVI melanoma): > 100 µM
- TGI (T-47D breast): > 100 µM
- TGI (SNB-19 CNS): > 100 µM
- TGI (HCT-116 colon): > 100 µM
- TGI (A549 NSCLC): > 100 µM
- TGI (ACHN renal): > 100 µM
- TGI (OVCAR-4 ovarian): > 100 µM
- TGI (EKVX NSCLC): > 100 µM
- TGI (K-562 leukemia): > 100 µM
- TGI (OVCAR-8 ovarian): > 100 µM
- TGI (BT-549 breast): > 100 µM
- TGI (TK-10 renal): > 100 µM
- TGI (NCI-H226 lung): > 100 µM
- TGI (KM12 colon): > 100 µM
- TGI (CCRF-CEM leukemia): > 100 µM
- TGI (M14 melanoma): > 100 µM
- TGI (IGROV1 ovarian): > 100 µM
- TGI (SK-OV-3 ovarian): > 100 µM
- TGI (SW-620 colon): > 100 µM
- TGI (MOLT-4 leukemia): > 100 µM
- TGI (SF-539 CNS): > 100 µM
- TGI (HOP-62 NSCLC): > 100 µM
- TGI (NCI/ADR-RES ovarian): > 100 µM
- TGI (OVCAR-3 ovarian): > 100 µM
- TGI (DU-145 prostate): > 100 µM
- TGI (OVCAR-5 ovarian): > 100 µM
- TGI (COLO 205 colon): > 100 µM
- TGI (SF-295 CNS): > 100 µM
- TGI (786-0 renal): > 100 µM
- TGI (NCI-H460 lung): > 100 µM
- TGI (RXF 393 renal): > 100 µM
- TGI (SF-268 CNS): > 100 µM
- TGI (U251 CNS): > 100 µM
- TGI (UACC-257 melanoma): > 100 µM
- TGI (SR leukemia): > 100 µM
- TGI (SK-MEL-5 melanoma): > 100 µM
- TGI (SK-MEL-2 melanoma): > 100 µM
- TGI (MALME-3M melanoma): > 100 µM
- TGI (MDA-MB-435): 35.7 µM
- TGI (HCT-15 colon): > 100 µM
